Test results: US20250269044A1, “PSMA-TARGETED DENDRIMER NANOPLATFORM FOR CANCER DETECTION AND THERAPY” (Washington State University, priority 2024, published 2025)
Values after ≈ are worked out from the molar mass of the structure shown. “Also recorded” adds a separate entry of the source.

Assays:
PC3-PIP PSMA (+) cells = assay: CellTiter-Glo Luminescent Cell Viability assay; format: cell-based; conditions: Homo sapiens; for viability at 1 µg/mL: 1 μg/ml; for viability at 1 µg/mL / viability at 10 µg/mL / viability at 1000 µg/mL / EC50: 72 h; for viability at 1 µg/mL / viability at 10 µg/mL / viability at 1000 µg/mL: read-out: viable cells; for viability at 10 µg/mL: 10 μg/ml; for viability at 1000 µg/mL: 1000 μg/ml; for IC50: 72 H, equivalent drug bases, read-out: IC50 anti-proliferative activity; for EC50: nonlinear regression with variable slope
Description: Cell viability: 2.5×10^4 PC3-PIP PSMA (+) cells were allowed to adhere to a 96 well plate overnight. The following day, cell media was changed and the PD-CTT1298-Cabo conjugate, at the concentrations tested, was added along with cabozantinib (Cabo) and hydoxy-cabozantinib (Cabo-OH). The cells were allowed to incubate at 37°° C. for 72H. Following incubation, the luminescence of the viable cells was measured using the CellTiter-Glo® Luminescent Cell Viability assay according to manufacturer's instructions. Cell viability (%) was calculated using the luminescence values obtained from the controls used in the experiment. The experiment was performed in triplicate.
Cell viability. 2.5×10^4 PC3-PIP PSMA (+) cells were allowed to adhere to a 96 well plate overnight. The following day, cell media was changed and the PSMA-2DG-D-Cabo dendrimer, at the concentrations tested, were added along with Cabozantinib (Cabo) and Cabozantinib-7-hydoxy derivative (Cabo-OH). The cells were allowed to incubate at 37° C. for 72 h. Following incubation, the luminescence of the viable cells was measured using the CellTiter-Glo® Luminescent Cell Viability assay (Promega, G7570) according to manufacturer's instructions. The luminescence data was collected using a plate reader. Cell viability (%) was calculated using the luminescence values obtained from the controls used in the experiment. The blank cells served as a positive (+) control while sterile 10% DMSO (Fisher Scientific, BP231) served as the negative (−) control. The experiment was performed in triplicate. A similar experiment was carried out with 2DG-D dendrimer at different concentrations (0.1, 1, 10, 100 and 1000 μg/ml) following the same protocol. The experiments were performed in triplicate, with proper controls. Statistical analyses were performed using a TWO-WAY ANOVA T-Test with unequal variances.

Aqueous solubility = format: physicochemical
c-Met = c-Met (Homo sapiens, UniProt P08581); assay: c-Met inhibition activities (IC50); format: biochemical; conditions: read-out: c-Met inhibitory activity IC50
c-Met, sequence (P08581 25-1390): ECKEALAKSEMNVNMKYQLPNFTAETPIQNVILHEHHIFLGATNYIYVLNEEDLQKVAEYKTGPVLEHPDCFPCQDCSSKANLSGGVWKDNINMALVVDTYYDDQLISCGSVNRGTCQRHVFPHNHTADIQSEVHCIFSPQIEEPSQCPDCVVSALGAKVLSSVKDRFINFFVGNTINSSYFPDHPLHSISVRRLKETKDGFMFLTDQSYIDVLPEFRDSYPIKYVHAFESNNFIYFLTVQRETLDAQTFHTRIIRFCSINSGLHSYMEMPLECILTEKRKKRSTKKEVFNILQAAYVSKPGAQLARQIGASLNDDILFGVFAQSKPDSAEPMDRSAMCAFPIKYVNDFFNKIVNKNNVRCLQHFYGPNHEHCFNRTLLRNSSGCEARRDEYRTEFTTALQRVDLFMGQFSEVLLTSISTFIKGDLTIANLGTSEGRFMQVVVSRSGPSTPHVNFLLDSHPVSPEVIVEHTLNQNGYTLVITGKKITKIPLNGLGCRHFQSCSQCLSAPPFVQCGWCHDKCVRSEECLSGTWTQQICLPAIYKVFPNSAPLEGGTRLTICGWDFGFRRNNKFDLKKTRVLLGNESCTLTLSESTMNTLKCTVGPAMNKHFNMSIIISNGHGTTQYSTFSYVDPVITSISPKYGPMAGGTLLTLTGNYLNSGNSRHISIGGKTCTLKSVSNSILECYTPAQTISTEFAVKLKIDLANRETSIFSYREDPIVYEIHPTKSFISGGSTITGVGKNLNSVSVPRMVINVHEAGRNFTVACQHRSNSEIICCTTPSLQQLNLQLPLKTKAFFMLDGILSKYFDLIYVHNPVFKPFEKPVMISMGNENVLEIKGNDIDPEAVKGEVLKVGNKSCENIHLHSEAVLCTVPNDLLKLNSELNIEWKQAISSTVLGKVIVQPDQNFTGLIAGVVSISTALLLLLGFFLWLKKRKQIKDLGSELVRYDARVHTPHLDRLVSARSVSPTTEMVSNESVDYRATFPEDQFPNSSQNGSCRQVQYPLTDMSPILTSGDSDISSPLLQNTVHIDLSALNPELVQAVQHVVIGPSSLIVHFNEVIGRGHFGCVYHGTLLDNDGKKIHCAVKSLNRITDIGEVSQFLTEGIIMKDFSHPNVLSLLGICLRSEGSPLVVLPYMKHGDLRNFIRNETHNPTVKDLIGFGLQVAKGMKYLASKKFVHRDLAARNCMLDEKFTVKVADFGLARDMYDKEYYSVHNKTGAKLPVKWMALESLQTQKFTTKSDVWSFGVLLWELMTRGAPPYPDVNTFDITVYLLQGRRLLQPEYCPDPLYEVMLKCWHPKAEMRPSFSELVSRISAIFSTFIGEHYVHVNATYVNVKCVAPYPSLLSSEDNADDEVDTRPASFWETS

IC50 (PC3-PIP PSMA (+) cells) | EC50 (PC3-PIP PSMA (+) cells) | IC50 (c-Met) | Structure (SMILES) | viability at 1 µg/mL (PC3-PIP PSMA (+) cells) | viability at 10 µg/mL (PC3-PIP PSMA (+) cells) | viability at 1000 µg/mL (PC3-PIP PSMA (+) cells) | water solubility (in words) (Aqueous solubility)
24.8 ± 2.27 µg/mL | 68 µg/mL (≈ 136 µM) |  | COc1cc2nccc(Oc3ccc(NC(=O)C4(C(=O)Nc5ccc(F)cc5)CC4)cc3)c2cc1OC [Cabo, cabozantinib] | 96.3 ± 4.58% | 69.2 ± 0.94% | 4.17 ± 0.53% | poor aqueous solubility; also recorded: negligible solubility in water
77.3 ± 4.35 µg/mL | 69.4 µg/mL (≈ 142 µM) | 26.3 nM | COc1cc2c(Oc3ccc(NC(=O)C4(C(=O)Nc5ccc(F)cc5)CC4)cc3)ccnc2cc1O [Cabo-OH, hydoxy-cabozantinib] | 105 ± 6.38% | 106 ± 3.09% | 7.81 ± 0.24% | poor aqueous solubility; also recorded: negligible solubility in water
